Here are results for 19 molecules from patent US20120165319A1, “INHIBITORS OF INTERLEUKIN-1 BETA CONVERTING ENZYME” (VERTEX PHARMACEUTICALS INCORPORATED, priority 1995, published 2012).

Data set [1] in a line: In vivo rat clearance assay. As to conditions: plasma, iv. Summed up:
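Rats cannulated a day beforehand received 10–20 mg/kg by intravenous jugular dosing in propylene glycol/saline with 100 mM sodium bicarbonate. Carotid blood was sampled from 0 to 90 min, and plasma was extracted with acetonitrile/0.1% TFA for HPLC quantification. Clearance from non-linear regression pharmacokinetic analysis.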

Data set [2] deals with IL-1β production, LPS-challenged mice. Briefly: In vivo acute assay for efficacy as anti-inflammatory agent: LPS-induced IL-1β production in mice. As to conditions: for inhibition at 50 mg/kg: Mus musculus, po, LPS challenged mice, compound PO, read-out: percent inhibition of IL-1β production; for IP % Inhibition / POS Inhibition: % inhibition of IL-β production, LPS-challenged mice, 50 mg/kg (Table 3); for POS Inhibition: PO. Also noted: species or system mouse. Summed up: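 Serum IL-1β was measured by ELISA 7 h after an IP dose of 20 mg/kg LPS in CD1 mice, n=6 per group. Compounds in olive oil/DMSO/ethanol 90:5:5 were injected IP 1 h post-LPS (some analogs were dosed at challenge), and separate groups received 50 mg/kg by oral gavage.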

The test system of a further data set is IL-1β, human whole blood. The data set can be described thus: Whole blood assay for IL-1β production. Particulars: read-out: Whole human blood IC50. Format: cell-based. A digest of the protocol:
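IL-1β was quantified by ELISA in plasma diluted 1:200. The plasma came from EDTA-anticoagulated human whole blood incubated at 30 °C for 16-18 h with LPS (final 5.0 ng/ml) plus a saline serial dilution of compound. Controls were no-LPS, no-inhibitor and highest-vehicle.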

Setting [3] is: 0 h, administered 0 h relative to time of LPS challenge.
Where [4] appears, read: 2 h, administered −2 h relative to time of LPS challenge.
[5] abbreviates: * = values obtained upon reassay.
Where [6] appears, read: Homo sapiens, * = values obtained upon reassay.
The mark [7] stands for this setting: 1 h, administered +1 h relative to time of LPS challenge.

Like-named read-outs stand apart in the source and are kept apart here.

Usually clearance stands for the volume of plasma or blood freed of the substance per unit of time. A word on the inhibition: it is the drop in the measured response relative to a control, in per cent. The term IC50 denotes the concentration that inhibits the measured activity by half. Take `COc1c(Cl)cc(C(=O)N[C@H]2CCC(=O)N3CCC[C@@H](C(=O)N[C@H](C=O)CC(=O)O)N3C2=O)cc1Cl` [Compound 214m]: the clearance in data set [1] (Table 17) was found to be 33.4 mL/min/kg. The inhibition at 50 mg/kg in data set [2] (setting [3]) came out at 17%; in data set [2] (setting [4]), 0%. Besides, the IC50 with IL-1β, human whole blood (Homo sapiens, Table 17) amounted to 2.2 µM.
For `CC(=O)Nc1cccc(C(=O)N[C@H]2CCC(=O)N3CCC[C@@H](C(=O)N[C@H](C=O)CC(=O)O)N3C2=O)c1` [Compound 450, [3S(1S,9S)]3-{9-[(3-Acetamido)benzamido]-6,10-dioxo-1,2,3,4,7,8,9,10-octahydro-6H-pyridazino[1,2-a][1,2]diazepine-1-carboxamido}-4-oxobutanoic acid], the clearance in data set [1] (10-20 mg/kg) worked out at 12 mL/min/kg. The figures for the inhibition at 50 mg/kg in data set [2] (setting [3]) and in data set [2] (setting [4]) were 35% and 0%, respectively. Besides, the IC50 amounted to 1.7 µM in the data set on IL-1β, human whole blood (setting [5]) and 2.2 µM in the data set with IL-1β, human whole blood (setting [6]).
Consider `CC(=O)Nc1ccc(C(=O)N[C@H]2CCC(=O)N3CCC[C@@H](C(=O)N[C@H](C=O)CC(=O)O)N3C2=O)cc1Cl` [Compound 214l, [3S(1S,9S)]3-(9-(3-Chloro-4-acetamidobenzoyl)amino-6,10-dioxo-1,2,3,4,7,8,9,10-octahydro-6H-pyridazino[1,2-a][1,2]diazepine-1-carboxamido)-4-oxobutanoic acid], for which the clearance in data set [1] (Table 17) is 12 mL/min/kg. In addition, the inhibition at 50 mg/kg was found to be 54% in data set [2] (setting [3]) and 0% in data set [2] (setting [4]). Besides, in the data set on IL-1β, human whole blood (Homo sapiens, Table 17), the half-maximal inhibitory concentration (IC50) worked out at 1.1 µM.
Molecule `CN(C)c1ccc(C(=O)N[C@H]2CCC(=O)N3CCC[C@@H](C(=O)N[C@H](C=O)CC(=O)O)N3C2=O)cc1` [Compound 471] displayed a clearance in data set [1] (10-20 mg/kg) of 17 mL/min/kg. Besides, the inhibition at 50 mg/kg amounted to 34% in data set [2] (setting [3]) and 0% in data set [2] (setting [4]). Moreover, the IC50 with IL-1β, human whole blood (setting [6]) was 0.4 µM.
In the case of `O=C[C@H](CC(=O)O)NC(=O)[C@@H]1CCCN2C(=O)CC[C@H](NC(=O)c3cc(Cl)c(O)c(Cl)c3)C(=O)N12` [Compound 214k, [3S(1S,9S)]3-(9-(3,5-Dichloro-4-hydroxybenzoyl)amino-6,10-dioxo-1,2,3,4,7,8,9,10-octahydro-6H-pyridazino[1,2-a][1,2]diazepine-1-carboxamido)-4-oxobutanoic acid], the clearance in data set [1] (Table 17) was 22 mL/min/kg. The inhibition at 50 mg/kg in data set [2] (setting [3]) came to 31%; in data set [2] (setting [4]) it was 12%. Moreover, the IC50 in the data set on IL-1β, human whole blood (Homo sapiens, Table 17) was 0.58 µM.
Take `O=C[C@H](CC(=O)O)NC(=O)[C@@H]1CCCN2C(=O)CC[C@H](NC(=O)c3ccc(Cl)cc3)C(=O)N12` [Compound 416]: the clearance in data set [1] (10-20 mg/kg) was found to be 47 mL/min/kg. In data set [2], the “IP % Inhibition” value came to 39% and the “POS Inhibition” value turned out to be 52%. Moreover, the IC50 with IL-1β, human whole blood (setting [6]) came out at 3.4 µM.
In data set [1] (10-20 mg/kg), `O=C[C@H](CC(=O)O)NC(=O)[C@@H]1CCCN2C(=O)CC[C@H](NC(=O)c3ccc4nc[nH]c4c3)C(=O)N12` [Compound 434] showed a clearance of 20 mL/min/kg. Further, the “IP % Inhibition” value in data set [2] amounted to 74%. In addition, in data set [2], the “POS Inhibition” value came out at 80%. In addition, the inhibition at 50 mg/kg was 63% in data set [2] (setting [3]), 80% in data set [2] (setting [7]) and 0% in data set [2] (setting [4]). The concentration for half-maximal inhibition (IC50) in the data set with IL-1β, human whole blood (setting [5]) was 1.3 µM; in the data set on IL-1β, human whole blood (setting [6]) it was 1.8 µM.
Consider `O=C[C@H](CC(=O)O)NC(=O)[C@@H]1CCCN2C(=O)CCN(NC(=O)c3ccc4c(c3)OCO4)C(=O)N12` [Compound 1015, [3S(4S)]3-[6,10-Dioxo-7-(3,4-methylenedioxybenzoylamino)-1,2,3,4,7,8,9,10-octahydro-6H-pyridazino[1,2-a][1,2,4]triazepine-4-carboxamido]-4-oxobutanoic acid], for which the clearance in data set [1] (10-20 mg/kg) came out at 23 mL/min/kg. Besides, the inhibition at 50 mg/kg in data set [2] (setting [3]) is 28%; in data set [2] (setting [4]), 15%. The IC50 in the data set on IL-1β, human whole blood (setting [6]) was determined as 1.7 µM.
In data set [1] (10-20 mg/kg), `CC(C)CC(=O)Nc1ccc(C(=O)N[C@H]2CCC(=O)N3CCC[C@@H](C(=O)N[C@H](C=O)CC(=O)O)N3C2=O)cc1` [Compound 487, [3S(1S,9S)]3-{6,10-Dioxo-9-[4-(3-methylbutan-1-oylamino)benzamido]-1,2,3,4,7,8,9,10-octahydro-6H-pyridazino[1,2-a][1,2]diazepine-1-carboxamido}-4-oxobutanoic acid] showed a clearance of 20 mL/min/kg. Besides, the inhibition at 50 mg/kg in data set [2] (setting [3]) was 20%; in data set [2] (setting [4]), 17%. The IC50 was determined as 0.4 µM with IL-1β, human whole blood (setting [5]) and 0.5 µM in the data set with IL-1β, human whole blood (setting [6]).
The molecule `CC(=O)N1C[C@H](NC(=O)c2cc(Cl)c(O)c(Cl)c2)C(=O)N(CC(=O)N[C@H](C=O)CC(=O)O)c2ccccc21` [Compound 656, (3S)-3-[(3S)-2-Oxo-3-(3,5-dichloro, 4-hydroxybenzoyl)amino-5-acetyl-2,3,4,5-tetrahydro-1H-1,5-benzodiazepine-1-acetylamino-]4-oxo-butyric acid] yielded a clearance in data set [1] (Table 17) of 2.9 mL/min/kg. Besides, the inhibition at 50 mg/kg came out at 16% in data set [2] (setting [3]) and 31% in data set [2] (setting [4]). Also, the half-inhibitory concentration (IC50) in the data set with IL-1β, human whole blood (Homo sapiens, Table 17) came to 1.6 µM.
Regarding `O=C[C@H](CC(=O)O)NC(=O)[C@@H]1CCCN2C(=O)CCN(NC(=O)c3ccccc3)C(=O)N12` [Compound 265, [3S(4S)]3-(7-Benzamido-6,10-dioxo-1,2,3,4,7,8,9,10-octahydro-6H-pyridazino[1,2-a][1,2,4]triazepine-4-carboxamido)-4-oxobutanoic acid], the clearance in data set [1] (10-20 mg/kg) turned out to be 20 mL/min/kg. In data set [2], the “IP % Inhibition” value is listed as 30% and the “POS Inhibition” value was 27%. Also, in the data set on IL-1β, human whole blood (setting [6]), the IC50 turned out to be 1.4 µM.
For `O=C[C@H](CC(=O)O)NC(=O)[C@@H]1CCCN2C(=O)CC[C@H](NC(=O)c3ccc(NC(=O)Cc4ccccc4)cc3)C(=O)N12` [Compound 486, [3S(1S,9S)]3-{6,10-Dioxo-1,2,3,4,7,8,9,10-octahydro-9-[4-(phenylacetamido)benzamido]-6H-pyridazino[1,2-a][1,2]diazepine-1-carboxamido}-4-oxobutanoic acid], the clearance in data set [1] (10-20 mg/kg) worked out at 37 mL/min/kg. Besides, the inhibition at 50 mg/kg was determined as 15% in data set [2] (setting [3]) and 19% in data set [2] (setting [4]). In addition, in the data set with IL-1β, human whole blood (setting [6]), the concentration for half-maximal inhibition (IC50) was determined as 0.5 µM.
`Cc1ccccc1C(=O)N[C@H]1CCC(=O)N2CCC[C@@H](C(=O)N[C@H](C=O)CC(=O)O)N2C1=O` [Compound 404] had a clearance in data set [1] (10-20 mg/kg) of 24 mL/min/kg. The inhibition at 50 mg/kg is 6% in data set [2] (setting [3]), 56% in data set [2] (setting [7]) and 55% in data set [2] (setting [4]). In addition, in the data set on IL-1β, human whole blood (setting [6]), the IC50 turned out to be 1.1 µM.
As for `O=C[C@H](CC(=O)O)NC(=O)[C@@H]1CCCN2C(=O)CC[C@H](NC(=O)c3cc4ccccc4[nH]3)C(=O)N12` [Compound 475, [3S(1S,9S)]3-[6,10-Dioxo-9-(indol-2-oylamino)-1,2,3,4,7,8,9,10-octahydro-6H-pyridazino[1,2-a][1,2]diazepine-1-carboxamido]-4-oxobutanoic acid], the clearance in data set [1] (10-20 mg/kg) was 21 mL/min/kg. For the same molecule, the inhibition at 50 mg/kg in data set [2] (setting [3]) was found to be 15%; in data set [2] (setting [4]), 0%. In addition, the IC50 with IL-1β, human whole blood (setting [5]) is 0.35 µM; in the data set on IL-1β, human whole blood (setting [6]) it was 0.4 µM.
As for `CN(C)c1cccc(C(=O)N[C@H]2CCC(=O)N3CCC[C@@H](C(=O)N[C@H](C=O)CC(=O)O)N3C2=O)c1` [Compound 470], the clearance in data set [1] (10-20 mg/kg) came out at 63 mL/min/kg. In addition, the inhibition at 50 mg/kg in data set [2] (setting [3]) worked out at 36%; in data set [2] (setting [4]) it was 0%. The half-maximal inhibitory concentration (IC50) is 0.5 µM in the data set on IL-1β, human whole blood (setting [5]) and 0.36 µM in the data set with IL-1β, human whole blood (setting [6]).
In the case of `COC(=O)N[C@H]1CCC(=O)N2CCC[C@@H](C(=O)N[C@@H](CC(=O)O)C(=O)COC(=O)c3c(Cl)cccc3Cl)N2C1=O` [Compound 284, [3S(1S,9S)]5-(2,6-Dichlorobenzoyloxy)-3-[6,10-dioxo-9-(methoxycarbonyl)amino-1,2,3,4,7,8,9,10-octahydro-6H-pyridazino[1,2-a][1,2]diazepine-1-carboxamido]-4-oxopentanoic acid], the clearance in data set [1] (10-20 mg/kg) turned out to be 100 mL/min/kg. Further, the concentration for half-maximal inhibition (IC50) with IL-1β, human whole blood (setting [6]) worked out at 0.55 µM.
Take `Cc1nc(C)c(C(=O)N[C@H]2CCC(=O)N3CCC[C@@H](C(=O)N[C@H](C=O)CC(=O)O)N3C2=O)s1` [Compound 423]: the clearance in data set [1] (10-20 mg/kg) amounted to 45 mL/min/kg. In addition, the IC50 in the data set with IL-1β, human whole blood (setting [6]) came to 1.5 µM.
For `COCC(=O)N1C[C@H](NC(=O)c2cccc3ccccc23)C(=O)N(CC(=O)N[C@H](C=O)CC(=O)O)c2ccccc21` [Compound 2201, (3S)-3-[(3S)-2-oxo-3-(1-naphthoyl)amino-5-methoxyacetyl-2,3,4,5-tetrahydro-1H-1,5-benzodiazepine-1-acetylamino]4-oxo-butyric acid], the clearance in data set [1] (10-20 mg/kg) was found to be 60 mL/min/kg. The half-maximal inhibitory concentration (IC50) in the data set on IL-1β, human whole blood (setting [6]) was determined as 3.5 µM.
Molecule `Cc1cc(C(=O)N[C@H]2CN(C(=O)CO)c3ccccc3N(CC(=O)N[C@H](C=O)CC(=O)O)C2=O)cc(C)c1O` [Compound 691a, (3S)-3-[(3S)-2-Oxo-3-(3,5-dimethyl-4-hydroxybenzoyl)amino-5-hydroxyacetyl-2,3,4,5-tetrahydro-1H-1,5-benzodiazepine-1-acetylamino]-4-oxo-butyric acid] returned a clearance in data set [1] (Table 17) of 9.9 mL/min/kg. The half-maximal inhibitory concentration (IC50) with IL-1β, human whole blood (Homo sapiens, Table 17) was found to be 1.2 µM.
